From patent US6379651B1, “Oral-topical dosage forms for delivering antibacterials/antibiotics to oral cavity to eradicate H. pylori as a concomitant treatment for peptic ulcers and other gastro-intestinal diseases” (priority 1995, dated 2002)

Columns and labels:
rat mesentery culture = assay: In vitro rat mesentery culture wound closure model; type: cell-based; conditions: for concentrations of growth factors EGF and FGF: 10 mcg/mL to 1,000 mcg/mL in medium, 2% fetal calf serum; for wound closure: 10 mcg/mL to 1,000 mcg/mL, 24-hour, 48-hour and 72-hour, compared to the placebo
Excerpt: This tissue culture model is useful for gaining insights into growth factor interactions and wound healing.

[1] = Freeze-injured skin graft model; type: in vivo; conditions: for wound healing rates compared to placebo: Doses of 10 to 1000 mcg/mL; for wound healing in cryoinjured grafts: in vivo
[2] = in vivo; cited from earlier work
H. pylori [3] = conditions: cited from earlier work
[4] = Diabetic mouse wound healing model; type: in vivo; conditions: formulations of 10 mcg/ml to 1,000 mcg/ml
Method: Further, wound healing potential of the above bismuth compounds is evaluated using a diabetic mouse wound healing model (Matuszewska et al., Pharmaceutical Research 11(1):65-71 (1994), incorporated herein by reference).

[5] = in vivo; cited from earlier work; remark: listed apart in the source
Treponema denticola = assay: In vitro MIC, Treponema denticola; type: cell-based
[6] = Method: Artificial saliva was used (Table 9).
Artificial saliva is used (Table 9).
The test saliva is prepared by dissolving 0.500 g of the antibiotic or antibacterial agent in a 100 mL of the above artificial saliva. […] The denture materials that are exposed to artificial saliva containing the agent or placebo are evaluated.

Helicobacter pylori = assay: In vitro MIC, Helicobacter pylori; type: cell-based
[7] = compared with placebo, cimetidine and ranitidine; cited from earlier work
Campylobacter rectus = assay: In vitro MIC, Campylobacter rectus; type: cell-based
H. pylori [8] = conditions: in vivo; cited from earlier work

colloidal bismuth subcitrate [CBS]
concentrations of growth factors EGF and FGF (rat mesentery culture): Significantly higher | wound closure (rat mesentery culture): significantly faster wound closure rate and complete closure | wound healing rates compared to placebo [1]: significant increase | wound healing in cryoinjured grafts [1]: stimulates wound healing in cryoinjured grafts in a dose-related fashion | absorption from the GI [2]: not absorbed significantly | secretion in the saliva [2]: produces no salivary concentrations | minimum inhibitory concentration (MIC) against H. pylori (H. pylori [3]): 8 µg/mL | MIC against H. pylori, range (H. pylori [3]; range): 4 to 32 µg/mL | wound healing compared to placebo [4]: heal faster | steady-state blood levels unlikely to cause any neurotoxicity [5]: 50-100 | minimum effective concentrations (MICs) (Treponema denticola): 32 µg/mL | staining, discoloration or changes in texture of natural tooth and denture materials [6]: did not cause any staining, discoloration, or changes in texture | minimum effective concentrations (MICs) (Helicobacter pylori): 2 µg/mL | relapse rates of duodenal ulcers [7]: significantly lower relapse rates | minimum effective concentrations (MICs) (Campylobacter rectus): 256 µg/mL

Cc1ncc([N+](=O)[O-])n1CCO [metronidazole]
eradication rate for H. pylori (H. pylori [8]): 5%

L-dihydro ascorbyl-tetrakis (hydrogen sulfate) bismuth complex [Bismuth Ascorbyl Sulfate]
concentrations of growth factors EGF and FGF (rat mesentery culture): Significantly higher | wound closure (rat mesentery culture): significantly faster wound closure rate and complete closure | wound healing rates compared to placebo [1]: significant increase | wound healing in cryoinjured grafts [1]: stimulates wound healing in cryoinjured grafts in a dose-related fashion | wound healing compared to placebo [4]: heal faster | minimum effective concentrations (MICs) (Treponema denticola): 16 µg/mL | minimum effective concentrations (MICs) (Helicobacter pylori): 8 µg/mL | minimum effective concentrations (MICs) (Campylobacter rectus): 256 µg/mL

CC[C@H]1OC(=O)[C@H](C)[C@@H](O[C@H]2C[C@@](C)(OC)[C@@H](O)[C@H](C)O2)[C@H](C)[C@@H](O[C@@H]2O[C@H](C)C[C@H](N(C)C)[C@H]2O)[C@](C)(OC)C[C@@H](C)C(=O)[C@H](C)[C@@H](O)[C@]1(C)O [Clarithromycin]
secretion in the saliva [2]: secreted in the saliva

beta-D-fructofuranosyl-oktakis (hydrogen sulfate) bismuth complex [Bismuth Sucrose Sulfate]
minimum effective concentrations (MICs) (Treponema denticola): 32 µg/mL | minimum effective concentrations (MICs) (Helicobacter pylori): 16 µg/mL | minimum effective concentrations (MICs) (Campylobacter rectus): >256 µg/mL
